Assays:
Format in all cases: biochemical
[1] = target: T1, human S1P1 receptor (Homo sapiens, UniProt P21453); assay: 35S-GTPγS binding assay (Test 1), S1P1; details: membrane protein of transfected CHO cells, SPA; for EC50: read-out: EC50, receptor subtype S1P1
T1 construct: expressed in transfected cells; host or cells: CHO-K1 (ATCC CCL 61); RH7777 may also be used
Experimental: (§1) Test 1: ^35S-GTPγS Binding Assay
(§2) The S1P receptor modulating properties of an agent of the invention are tested on the human S1P1, S1P2, S1P3, S1P4 and S1P5, respectively, receptor subtypes. The functional receptor activation is assessed by quantifying the compound-induced ^35S-GTPγS binding to membrane protein prepared from transfected heterologous cells stably expressing the appropriate S1P receptor subtype. CHO cells (CHO-K1, Chinese hamster, ATCC no. CCL 61) are used [RH7777 cells (rat Morris hepatoma, ATCC no. CRL 1601) may also be used]. The membrane protein is prepared from wild-type cells and from different cell clones expressing the appropriate S1P receptor subtype. The assay technology used is SPA (scintillation proximity based assay). A DMSO solution of the test compound is serially diluted and added to SPA-bead (Amersham-Pharmacia) immobilised S1P receptor subtype expressing membrane protein (1 to 20 μg/well) in the presence of 50 mM HEPES, 100 mM NaCl, 10 mM MgCl2, 10 μM GDP, 0.1% fat free BSA and 0.2 nM ^35S-GTPγS (1200 Ci/mmol) (pH 7.4). After incubation in 96 well microtiter plates at room temperature for 120 minutes, the unbound ^35S-GTPγS is separated by centrifugation. The luminescence of SPA beads triggered by membrane bound ^35S-GTPγS is quantified with a TOPcount plate reader (Packard). To evaluate the S1P receptor modulation, the stimulation (in %) compared to the baseline is calculated as the binding in the presence of the compound divided by the binding in the absence of a ligand, multiplied by 100. Dose response curves are plotted using a non-linear regression curve fitting program, and the EC50 is defined as the concentration of the compound required to give 50% of its maximum stimulation. Preferably, the EC50 value of an agent of the invention in this test is 10′000 nM or less. The selectivity of the compound towards the S1P receptor subtypes is determined by measuring for each of the different S1P receptor subtypes the level of ^35S-GTPγS binding in the presence of the compound using each of the different membrane proteins.

[2] = target: T2, human S1P4 receptor (Homo sapiens, UniProt O95977); assay: 35S-GTPγS binding assay (Test 1), S1P4; details: membrane protein of transfected CHO cells, SPA; for EC50: read-out: EC50, receptor subtype S1P4
T2 construct: expressed in transfected cells; host or cells: CHO-K1 (ATCC CCL 61); RH7777 may also be used
T2 sequence (O95977 1-384): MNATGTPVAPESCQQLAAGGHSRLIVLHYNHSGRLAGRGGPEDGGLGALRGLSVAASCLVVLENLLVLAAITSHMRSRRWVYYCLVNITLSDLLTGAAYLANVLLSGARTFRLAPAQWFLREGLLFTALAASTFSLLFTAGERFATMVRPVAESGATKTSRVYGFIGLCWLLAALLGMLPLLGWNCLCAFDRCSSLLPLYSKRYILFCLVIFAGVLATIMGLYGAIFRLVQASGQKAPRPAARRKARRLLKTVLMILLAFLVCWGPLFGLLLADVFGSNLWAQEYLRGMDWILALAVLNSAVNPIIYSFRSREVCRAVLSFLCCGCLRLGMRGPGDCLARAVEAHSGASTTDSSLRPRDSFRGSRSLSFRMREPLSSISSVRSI
Experimental: as §1, §2

[3] = target: T3, human S1P5 receptor (Homo sapiens, UniProt Q9H228); assay: 35S-GTPγS binding assay (Test 1), S1P5; details: membrane protein of transfected CHO cells, SPA; for EC50: read-out: EC50, receptor subtype S1P5
T3 construct: expressed in transfected cells; host or cells: CHO-K1 (ATCC CCL 61); RH7777 may also be used
T3 sequence (Q9H228 whole entry): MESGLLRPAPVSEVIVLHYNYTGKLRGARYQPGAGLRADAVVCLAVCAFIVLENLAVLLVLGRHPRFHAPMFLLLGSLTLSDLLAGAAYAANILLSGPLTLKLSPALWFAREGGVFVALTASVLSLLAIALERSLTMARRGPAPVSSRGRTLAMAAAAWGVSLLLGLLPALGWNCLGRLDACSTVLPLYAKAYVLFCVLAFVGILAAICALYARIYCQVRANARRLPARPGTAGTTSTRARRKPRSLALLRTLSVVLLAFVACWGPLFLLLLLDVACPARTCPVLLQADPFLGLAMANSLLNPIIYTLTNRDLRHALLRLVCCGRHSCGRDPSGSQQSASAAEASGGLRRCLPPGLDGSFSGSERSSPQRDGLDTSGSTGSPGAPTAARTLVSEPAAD
Experimental: as §1, §2

T1 sequence (P21453 whole entry): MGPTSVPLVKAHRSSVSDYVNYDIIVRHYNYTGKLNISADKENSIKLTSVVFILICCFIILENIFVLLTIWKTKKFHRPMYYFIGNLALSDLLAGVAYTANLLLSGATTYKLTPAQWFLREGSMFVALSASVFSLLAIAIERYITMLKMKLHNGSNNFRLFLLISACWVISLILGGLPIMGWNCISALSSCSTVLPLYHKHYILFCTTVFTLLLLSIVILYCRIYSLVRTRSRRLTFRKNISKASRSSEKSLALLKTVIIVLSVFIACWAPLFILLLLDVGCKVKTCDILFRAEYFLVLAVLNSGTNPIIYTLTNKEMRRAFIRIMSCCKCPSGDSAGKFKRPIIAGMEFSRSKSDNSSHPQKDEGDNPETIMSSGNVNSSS

Structure (SMILES) | efficacy, receptor subtype S1P1 [1] [%] | EC50 [1] [nM] | efficacy, receptor subtype S1P4 [2] [%] | EC50 [2] [nM] | efficacy, receptor subtype S1P5 [3] [%] | EC50 [3] [nM]
CCCn1nccc1-c1ccc(Nc2c(C)cc(C)cc2C)c(C(N)=O)c1 [Example 27, 5-(2-Propyl-2H-pyrazol-3-yl)-2-(2,4,6-trimethyl-phenylamino)-benzamide] | 85 | 495 | 130 | 106 | 93 | 25
COc1ccc(Nc2c(C)cc(C)cc2C)c(C(N)=O)c1 [Example 36, 5-Methoxy-2-(2,4,6-trimethyl-phenylamino)-benzamide] | 87 | 305 | 126 | 210 | 64 | 80
Cc1cc(C)c(Nc2ccc(Cl)cc2C(N)=O)c(C)c1 [Example 37, 5-Chloro-2-(2,4,6-trimethyl-phenylamino)-benzamide] | 93 | 150 | 109 | 160 | 66 | 90

Source: patent US20100197753A1, “Benzamides Useful as S1P Receptor Modulators” (Novartis AG, priority 2007, published 2010)
